# Laboratory results: patent publication EP4729516A1, “S[…] DERIVATIVE, INTERMEDIATE, PREPARATION METHOD THEREFOR AND USE THEREOF” (Jiangsu NHWA Pharmaceutical Co., Ltd, priority 2023, dated 2024)
# Where a name gives a salt, the structure may show the parent alone. Read-outs that look alike come from different tables or passages of the source.
# Tests used:
# α2A receptor = biological target: T1, α2A receptor (Homo sapiens, UniProt P08913); assay: Competitive receptor binding assay, α2A (3H-RX821002, CHO-K1-α2A membranes); settings: for affinity for the α2A receptor / affinity α1A/2A: in words, compared with dexmedetomidine hydrochloride
# T1 construct: expressed in transfected cells; host or cells: CHO-K1
# T1 sequence (P08913 1-465): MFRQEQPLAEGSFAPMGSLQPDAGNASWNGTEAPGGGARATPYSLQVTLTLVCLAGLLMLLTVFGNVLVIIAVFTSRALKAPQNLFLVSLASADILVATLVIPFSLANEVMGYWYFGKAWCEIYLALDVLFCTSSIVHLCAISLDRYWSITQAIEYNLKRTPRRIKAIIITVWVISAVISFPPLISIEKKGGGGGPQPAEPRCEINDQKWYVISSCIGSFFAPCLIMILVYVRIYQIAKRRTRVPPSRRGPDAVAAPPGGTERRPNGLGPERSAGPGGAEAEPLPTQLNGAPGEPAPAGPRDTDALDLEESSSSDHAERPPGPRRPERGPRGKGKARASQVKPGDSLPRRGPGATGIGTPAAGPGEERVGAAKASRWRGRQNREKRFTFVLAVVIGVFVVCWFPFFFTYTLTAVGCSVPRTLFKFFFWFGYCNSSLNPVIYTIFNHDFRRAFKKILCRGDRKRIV
# Method: Standard buffer (used for preparing α1A, α2A, α2B, and α2C receptor membranes): 146 mg of EDTA was weighed out, a 50 mM Tris-HCl buffer was added to reach a total volume of 1000 mL, and the pH was adjusted to 7.7 to make a final concentration of 0.5 mM for EDTA.
# Test sample (compound): The theoretical sample weighing amount was calculated according to the designed concentration and the required volume. Generally, the test sample was dissolved in DMSO to an initial preparation dose of 5.0 × 10^-3 M, and the solution was sequentially diluted with DMSO to 5.0 × 10^-4 M-5.0 × 10^-9 M; the diluted DMSO solution was diluted with Buffer to a working concentration of 5.0 × 10^-5 M-5.0 × 10^-11 M; and the final concentration of DMSO in the working solution was 1% (the final concentration of DMSO in the reaction system was 0.2%). The test sample was prepared and then stored at 4 °C. After the test was completed, the test sample was discarded.
# CHO-K1-α1A, CHO-K1-α2A, CHO-K1-α2B, and CHO-K1-α2C cells were taken out of a refrigerator at -80 °C, thawed naturally, and centrifuged at 2000 g at 4 °C for 10 min. The supernatant was discarded, and the pellet was collected. A buffer was added to the pellet, and the mixture was homogenized for 20-30 s and then centrifuged at 48000 g at 4 °C for 25 min. The supernatant was discarded, and the buffer was added again. The mixture was homogenized for 20-30 s and centrifuged at 48000 g at 4 °C for 25 min. The supernatant was discarded, and the pellet was collected and stored at -80 °C.
# Table 1. Experimental conditions for radioactive binding
# Step 1: 50 µL of a vehicle (1% DMSO) was added to a total binding tube (TB), 50 µL of a non-labeled substance (with a final concentration of 1.0 × 10^-5 M) was added to a non-specific binding tube (NB), and 50 µL of a test compound was added to each test compound tube (CB).
# Step 2: 100 µL of a buffer was added to each reaction tube.
# Step 3: The prepared membrane was suspended in a buffer to give a membrane suspension with a corresponding concentration for later use.
# Step 4: 50 µL of the corresponding radioligand was added to each reaction tube.
# Step 5: 50 µL of the membrane suspension was added to each reaction tube.
# Step 6: Each reaction tube was incubated according to the incubation conditions. After the reaction was completed, the binding ligands were rapidly filtered under reduced pressure. The UniFilter GF/C plate was saturated with a 0.5% PEI solution 1 h in advance, fully washed with an ice-cold Tris-HCl buffer, filtered under vacuum, then placed into a thermostatic dryer, and dried for 30 min. The filter plate was taken out, and a MICROSCINT PS scintillation solution was added at 40 µL/well.
# Step 7: The scintillation vial was put into a liquid scintillation counter for counting.
# Based on the effect values of the compound samples at different concentration test points, the GraphPad Prism software was used to fit the action curves of the compound samples to the receptors, and the Ki values were calculated.
# Male SD rats = assay: Hypnotic efficacy: loss of righting reflex (LORR) in rats; format: in vivo; settings: for ED50: Rattus norvegicus, tail vein injection over 10 s, sequential method; for induce sleep in rats: time to induce sleep, dose twice the ED50
# Method: The sequential method was used to determine the ED50 (median effective dose) for the loss of righting reflex (LORR) by the compounds of the present disclosure in rats: Male SD rats, weighing 200-300 grams, were used. Each compound was dissolved in normal saline and administered via tail vein injection at an initial dose at a constant injection rate over 10 s (one rat per dose). […] This process was repeated, and the results were recorded in the AOT425 Statpm software until the software could calculate the ED50, at which point the experiment was terminated. The hypnotic efficacy of the compounds of the present disclosure was evaluated using ED50 with lower ED50 values indicating stronger efficacy.
# Comparison of onset time and duration: Male SD rats, weighing 200-300 grams, were used. Each compound was dissolved in normal saline and administered via tail vein injection at a constant injection rate over 10 s, with 10 rats per group. […] The onset time and duration were recorded.
# The onset time refers to the period from the completion of injection to when the rat is placed in a supine position, with the criterion for loss of righting reflex defined as the rat's inability to spontaneously revert to a prone position using its forelimbs and maintained for ≥10 s, which serves as an indicator of compound efficacy; the duration refers to the sustained period during which the rat remains in a state of losing righting reflex. The spontaneous recovery of the righting reflex in the rat is considered the cessation of the efficacy.
# [1] = Ki, CHO-K1-α2A membranes, 3H-RX821002, read-out: Binding α2A
# [2] = loss of righting reflex, male SD rats
# [3] = in words, compared with dexmedetomidine hydrochloride, rats
# [4] = loss of righting reflex, male SD rats, tail vein injection, dose twice the ED50, 10 rats per group
Structure (SMILES),Ki (α2A receptor; [1]) [nM],affinity for the α2A receptor (α2A receptor),Ki (α2A receptor) [nM],affinity α1A/2A (α2A receptor),ED50 (Male SD rats; [2]) [mg/kg],Duration (Male SD rats; [3]),hypnotic onset time (Male SD rats; [3]),Duration (Male SD rats; [4]) [S],Onset time (Male SD rats; [4]) [S],induce sleep in rats (Male SD rats; rats) [min]
"c1cc2c(c(Cc3c[nH]cn3)c1)SCCC2 [Compound 1, 4-[1-(Thiochroman-8-yl)methyl]-1H-imidazole]",15.6,comparable,,,,,,,,
"CC(c1c[nH]cn1)c1cccc2c1SCCC2 (centres unmarked) [Compound 2, 4-(1-[Thiochroman-8-yl)ethyl]-1H-imidazole]",7.72,superior,,,,,,,,
"CC(c1c[nH]cn1)c1cccc2c1CC2 (centres unmarked) [Compound 3, 4-(1-(Bicyclo[4.2.0]octa-1(6),2,4-trien-2-yl)ethyl)-1H-imidazole]",,comparable,29.1,comparable,,,,,,
"CC(c1c[nH]cn1)c1cccc2c1CCCC2 (centres unmarked) [Compound 4, 4-(1-(5,6,7,8-Tetrahydronaphthalen-1-yl)ethyl)-1H-imidazole]",,comparable,28.7,superior,,,,,,
"CC(c1c[nH]cn1)c1cccc2c1C=CC2 (centres unmarked) [Compound 8, 4-[1-(1H-Inden-4-yl)ethyl]-1H-imidazole]",,comparable,10.8,superior,0.0213,significantly shorter,comparable to or slightly longer,635.80±697.73,161.70±101.69,≤ 5
"CC(c1c[nH]cn1)c1cccc2c1OCC2 (centres unmarked) [Compound 10, 4-[1-(2,3-Dihydrobenzofuran-7-yl)ethyl]-1H-imidazole]",,superior,2.4,superior,0.0088,significantly shorter,comparable to or slightly longer,508.10±572.65,219.90±93.88,≤ 5
"C[C@H](c1c[nH]cn1)c1cc(F)cc2c1C=CC2 [Compound 11-b, 4-[(1S)-1-(6-fluoro-1H-inden-4-yl)ethyl]-1H-imidazole]",,,211,,0.0256,significantly shorter,significantly shorter,666.00±376.66,45.20±7.38,
"CC(c1c[nH]cn1)c1cccc2c1C=CC2(C)C (centres unmarked) [Compound 17, 4-[1-(1,1-Dimethyl-1H-inden-4-yl)ethyl]-1H-imidazole]",,,143,,0.276,significantly shorter,comparable to or slightly longer,1602.50±681.51,101.80±154.86,≤ 5
"C[C@H](c1c[nH]cn1)c1cccc2c1CCC2 [Compound 31-b, (S)-4-[1-(2,3-dihydro-1H-inden-4-yl)ethyl]-1H-imidazole]",,,23.5,,0.0268,significantly shorter,comparable to or slightly longer,1147.78±656.35,100.44±49.16,≤ 5
"CC1Cc2cccc(C(C)c3c[nH]cn3)c2O1 (centres unmarked) [Compound 32, 4-[1-(2-Methyl-2,3-dihydrobenzofuran-7-yl)ethyl]-1H-imidazole]",,,4.94,,,,,,,
"C[C@H](c1c[nH]cn1)c1cc(F)cc2c1C(=O)CC2 [Compound 38-b, (S)-7-(1-(1H-imidazol-4-yl)ethyl)-5-fluoro-2,3-dihydro-1H-inden-1-one]",701,,,,0.032,significantly shorter,comparable to or slightly longer,228.22±158.93,102.44±52.34,≤ 5
"Cc1cccc([C@H](C)c2cnc[nH]2)c1C [Dexmedetomidine hydrochloride, reference compound]",,,,,0.01,,,3275.10±796.79,77.80±28.56,
